Test results published in paper PMC7496096, “Functional Characterisation of ClpP Mutations Conferring Resistance to Acyldepsipeptide Antibiotics in Firmicutes” (Chembiochem, 2020).

How the values were obtained:
Type in all cases: cell-based, Bacillus subtilis
[1] = test system: B. subtilis RC8; settings: resistant clone of B. subtilis 168; ClpP R142→H, intra-ring interaction
Method: (§1) Determination of antibacterial activity: ADEP1 was purified from the culture supernatant of S. hawaiiensis NRRL 15010 as described.4 ADEPs 2, 4, 7, 9 were custom synthesised by EMC Microcollections, Tübingen, or provided by AiCuris, Wuppertal, Germany. The minimal inhibitory concentration (MIC) was determined by broth microdilution in Mueller‐Hinton broth (without cation adjustment) according to the guidelines of the Clinical Laboratory Standards Institute (CLSI).69 The inoculum was set to 5×10^4 CFU mL^−1 to allow some distance to the determined spontaneous resistance frequencies. […] All other ADEPs were used from DMSO stock solutions kept at −20 °C.
(§2) Screening for ADEP‐resistant mutants and determination of resistance rates: Single colonies of wild‐type strains grown on Mueller‐Hinton agar plates overnight were suspended in sterile saline and a final inoculum of 5×10^6 cells was spread on plates supplemented with different ADEP congeners at 4× and 10× the MIC. For B. subtilis strain 3xclpP, ADEP7‐containing Mueller‐Hinton agar plates were additionally supplemented with 1 mM IPTG. Resistant colonies were counted after 24 h at 37 °C and colonies were randomly chosen for MIC determinations and sequencing. Mutations in the clpP gene of the respective isolated mutants were analysed by amplifying the clpP gene (and upstream promoter region) by PCR and sequencing of the resulting PCR amplicons (LGC genomics). Sequencing data were analysed by using SnapGene software (GSL Biotech).

[2] = test system: B. subtilis RC11; settings: resistant clone of B. subtilis 168; ClpP Q132→STOP, premature stop
Method: as §1, §2

[3] = test system: B. subtilis RC2; settings: resistant clone of B. subtilis 168; ClpP L3→STOP, premature stop
Method: as §1, §2

[4] = test system: B. subtilis RC3; settings: resistant clone of B. subtilis 168; ClpP A76→T (ClpP core; α3)
Method: as §1, §2

[5] = test system: B. subtilis RC4; settings: resistant clone of B. subtilis 168; G insertion, frame shift, premature stop (E163→STOP)
Method: as §1, §2

Q: Which MIC [1] does the source give for `C[C@@H]1C[C@H]2C(=O)OC[C@H](NC(=O)[C@H](Cc3cc(F)cc(F)c3)NC(=O)CCC3CCCCC3)C(=O)N3CCC[C@H]3C(=O)N3CCCC[C@H]3C(=O)N[C@@H](C)C(=O)N2C1` [ADEP2] here?
A: The MIC was >64 mg/L.

Q: And the MIC [2]?
A: The MIC was >64 mg/L.

Q: And the MIC [3]?
A: The MIC was >64 mg/L.

Q: What about the MIC [4] of the same molecule?
A: The MIC was 16 to 32 mg/L.

Q: And the MIC [5]?
A: Its MIC is >64 mg/L.
